Source: US20230085307A1, “PYRIDAZINONE COMPOUND AND HERBICIDE” (NISSAN CHEMICAL CORPORATION, priority 2019, published 2023)

What was measured:
barnyard grass [1] = assay: Test Example 3: herbicidal effect by foliage application, Wagner pot (Table 18, symbol H); assay type: in vivo, barnyard grass (Echinochloa crus-galli); conditions: amount of applied herbicide 320 g/ha
Method in brief: (§1)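 Plants were sown in alluvial soil held under 0.1–0.5 cm standing water and grown 14 days in a greenhouse at 25–30 °C. An emulsifiable formulation, water-diluted to the set dose, was then sprayed onto the foliage, and effects were scored three weeks later using previously defined criteria.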

Chinese sprangletop = assay: Test Example 3: herbicidal effect by foliage application, Wagner pot (Table 18, symbol D); assay type: in vivo, chinese sprangletop (Leptochloa chinensis); conditions: amount of applied herbicide 320 g/ha
Method in brief: as §1

rice flat sedge = assay: Test Example 3: herbicidal effect by foliage application, Wagner pot (Table 18, symbol E); assay type: in vivo, rice flat sedge (Cyperus iria); conditions: amount of applied herbicide 320 g/ha
Method in brief: as §1

southern crabgrass [2] = assay: Test Example 4: herbicidal effect by soil treatment (Table 19, symbol F); assay type: in vivo, southern crabgrass (Digitaria ciliaris); conditions: amount of applied herbicide 320 g/ha
Method in brief: (§2)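 Soil-surface application: an emulsion agent diluted with water to the predetermined dose is sprayed uniformly over seeds lying under roughly 1.5 cm of sterilized diluvial soil. Boxes stay in a greenhouse at 25° C. to 30° C. Three weeks later, each species is graded on previously defined criteria.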

green foxtail [3] = assay: Test Example 4: herbicidal effect by soil treatment (Table 19, symbol G); assay type: in vivo, green foxtail (Setaria viridis); conditions: amount of applied herbicide 320 g/ha
Method in brief: as §2

barnyard grass [4] = assay: Test Example 4: herbicidal effect by soil treatment (Table 19, symbol H); assay type: in vivo, barnyard grass (Echinochloa crus-galli); conditions: amount of applied herbicide 320 g/ha
Method in brief: as §2

wild oat [5] = assay: Test Example 4: herbicidal effect by soil treatment (Table 19, symbol I); assay type: in vivo, wild oat (Avena fatua); conditions: amount of applied herbicide 320 g/ha
Method in brief: as §2

blackgrass [6] = assay: Test Example 4: herbicidal effect by soil treatment (Table 19, symbol J); assay type: in vivo, blackgrass (Alopecurus myosuroides); conditions: amount of applied herbicide 320 g/ha
Method in brief: as §2

Italian ryegrass [7] = assay: Test Example 4: herbicidal effect by soil treatment (Table 19, symbol K); assay type: in vivo, Italian ryegrass (Lolium multiflorum); conditions: amount of applied herbicide 320 g/ha
Method in brief: as §2

windgrass [8] = assay: Test Example 4: herbicidal effect by soil treatment (Table 19, symbol L); assay type: in vivo, windgrass (Apera spica-venti); conditions: amount of applied herbicide 320 g/ha
Method in brief: as §2

velvetleaf [9] = assay: Test Example 4: herbicidal effect by soil treatment (Table 19, symbol M); assay type: in vivo, velvetleaf (Abutilon theophrasti); conditions: amount of applied herbicide 320 g/ha
Method in brief: as §2

redroot pigweed = assay: Test Example 4: herbicidal effect by soil treatment (Table 19, symbol N); assay type: in vivo, redroot pigweed (Amaranthus retroflexus); conditions: amount of applied herbicide 320 g/ha
Method in brief: as §2

lambsquarters [10] = assay: Test Example 4: herbicidal effect by soil treatment (Table 19, symbol O); assay type: in vivo, lambsquarters (Chenopodium album); conditions: amount of applied herbicide 320 g/ha
Method in brief: as §2

chickweed = assay: Test Example 4: herbicidal effect by soil treatment (Table 19, symbol P); assay type: in vivo, common chickweed (Stellaria media); conditions: amount of applied herbicide 320 g/ha
Method in brief: as §2

persian speedwell [11] = assay: Test Example 4: herbicidal effect by soil treatment (Table 19, symbol R); assay type: in vivo, Persian speedwell (Veronica persica); conditions: amount of applied herbicide 320 g/ha
Method in brief: as §2

southern crabgrass [12] = assay: Test Example 5: herbicidal effect by foliage application, plastic box (Table 20, symbol F); assay type: in vivo, southern crabgrass (Digitaria ciliaris); conditions: foliage application, 320 g/ha, three weeks after application
Method in brief: (§3)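 Sow seeds spot-wise in sterilized diluvial soil; cover with ~1.5 cm soil. Grow 14 days in greenhouse, 25° C. to 30° C. Spray foliage with emulsion diluted to predetermined amount. Rate effect after 3 weeks.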

green foxtail [13] = assay: Test Example 5: herbicidal effect by foliage application, plastic box (Table 20, symbol G); assay type: in vivo, green foxtail (Setaria viridis); conditions: foliage application, 320 g/ha, three weeks after application
Method in brief: as §3

barnyard grass [14] = assay: Test Example 5: herbicidal effect by foliage application, plastic box (Table 20, symbol H); assay type: in vivo, barnyard grass (Echinochloa crus-galli); conditions: foliage application, 320 g/ha, three weeks after application
Method in brief: as §3

wild oat [15] = assay: Test Example 5: herbicidal effect by foliage application, plastic box (Table 20, symbol I); assay type: in vivo, wild oat (Avena fatua); conditions: foliage application, 320 g/ha, three weeks after application
Method in brief: as §3

blackgrass [16] = assay: Test Example 5: herbicidal effect by foliage application, plastic box (Table 20, symbol J); assay type: in vivo, blackgrass (Alopecurus myosuroides); conditions: foliage application, 320 g/ha, three weeks after application
Method in brief: as §3

Italian ryegrass [17] = assay: Test Example 5: herbicidal effect by foliage application, plastic box (Table 20, symbol K); assay type: in vivo, Italian ryegrass (Lolium multiflorum); conditions: foliage application, 320 g/ha, three weeks after application
Method in brief: as §3

windgrass [18] = assay: Test Example 5: herbicidal effect by foliage application, plastic box (Table 20, symbol L); assay type: in vivo, windgrass (Apera spica-venti); conditions: foliage application, 320 g/ha, three weeks after application
Method in brief: as §3

velvetleaf [19] = assay: Test Example 5: herbicidal effect by foliage application, plastic box (Table 20, symbol M); assay type: in vivo, velvetleaf (Abutilon theophrasti); conditions: foliage application, 320 g/ha, three weeks after application
Method in brief: as §3

lambsquarters [20] = assay: Test Example 5: herbicidal effect by foliage application, plastic box (Table 20, symbol O); assay type: in vivo, lambsquarters (Chenopodium album); conditions: foliage application, 320 g/ha, three weeks after application
Method in brief: as §3

false cleavers = assay: Test Example 5: herbicidal effect by foliage application, plastic box (Table 20, symbol Q); assay type: in vivo, false cleavers (Galium spurium); conditions: foliage application, 320 g/ha, three weeks after application
Method in brief: as §3

persian speedwell [21] = assay: Test Example 5: herbicidal effect by foliage application, plastic box (Table 20, symbol R); assay type: in vivo, Persian speedwell (Veronica persica); conditions: foliage application, 320 g/ha, three weeks after application
Method in brief: as §3

COc1cc(F)ccc1-c1oc2ccc(C)cc2c1-c1c(O)c(C)nn(C)c1=O [9-009]
Herbicidal effect on H (barnyard grass), foliage application (barnyard grass [1]): 3 (Herbicidal rate of 40% or more and less than 70%) | Herbicidal effect on D (Chinese sprangletop), foliage application (Chinese sprangletop): 0 (Herbicidal rate of 5% or less (almost no effect)) | Herbicidal effect on E (rice flat sedge), foliage application (rice flat sedge): 1 (Herbicidal rate of 5% or more and less than 20%) | F: southern crabgrass, herbicidal effect grade (southern crabgrass [2]): 2 (Herbicidal rate of 20% or more and less than 40%) | G: green foxtail, herbicidal effect grade (green foxtail [3]): 3 (Herbicidal rate of 40% or more and less than 70%) | H: barnyard grass, herbicidal effect grade (barnyard grass [4]): 3 (Herbicidal rate of 40% or more and less than 70%) | I: wild oat, herbicidal effect grade (wild oat [5]): 0 (Herbicidal rate of 5% or less (almost no effect)) | J: blackgrass, herbicidal effect grade (blackgrass [6]): 0 (Herbicidal rate of 5% or less (almost no effect)) | K: Italian ryegrass, herbicidal effect grade (Italian ryegrass [7]): 0 (Herbicidal rate of 5% or less (almost no effect)) | L: windgrass, herbicidal effect grade (windgrass [8]): 0 (Herbicidal rate of 5% or less (almost no effect)) | M: velvetleaf, herbicidal effect grade (velvetleaf [9]): 0 (Herbicidal rate of 5% or less (almost no effect)) | N: redroot pigweed, herbicidal effect grade (redroot pigweed): 0 (Herbicidal rate of 5% or less (almost no effect)) | O: lambsquarters, herbicidal effect grade (lambsquarters [10]): 3 (Herbicidal rate of 40% or more and less than 70%) | P: chickweed, herbicidal effect grade (chickweed): 0 (Herbicidal rate of 5% or less (almost no effect)) | R: persian speedwell, herbicidal effect grade (persian speedwell [11]): 0 (Herbicidal rate of 5% or less (almost no effect)) | herbicidal effect on southern crabgrass (F) (southern crabgrass [12]): 2 (Herbicidal rate of 20% or more and less than 40%) | herbicidal effect on green foxtail (G) (green foxtail [13]): 2 (Herbicidal rate of 20% or more and less than 40%) | herbicidal effect on barnyard grass (H) (barnyard grass [14]): 3 (Herbicidal rate of 40% or more and less than 70%) | herbicidal effect on wild oat (I) (wild oat [15]): 2 (Herbicidal rate of 20% or more and less than 40%) | herbicidal effect on blackgrass (J) (blackgrass [16]): 0 (Herbicidal rate of 5% or less (almost no effect)) | herbicidal effect on Italian ryegrass (K) (Italian ryegrass [17]): 1 (Herbicidal rate of 5% or more and less than 20%) | herbicidal effect on windgrass (L) (windgrass [18]): 0 (Herbicidal rate of 5% or less (almost no effect)) | herbicidal effect on velvetleaf (M) (velvetleaf [19]): 2 (Herbicidal rate of 20% or more and less than 40%) | herbicidal effect on lambsquarters (O) (lambsquarters [20]): 3 (Herbicidal rate of 40% or more and less than 70%) | herbicidal effect on false cleavers (Q) (false cleavers): 4 (Herbicidal rate of 70% or more and less than 90%) | herbicidal effect on persian speedwell (R) (persian speedwell [21]): 3 (Herbicidal rate of 40% or more and less than 70%)
